# Species on record: Rattus norvegicus
# Assay: DrugMatrix - Regimen: Daily Repeat
# Format: toxicity, organism-based, Sprague-Dawley
# Parameters: regimen Daily Repeat, gender Male, age 6-8 weeks
# Conditions: in vivo, po, 1500 mg/kg, route oral GAVAGE, dose level High, vehicle .5 % CMC; for ABSOLUTE BASOPHIL / ABSOLUTE EOSINOPHIL / ABSOLUTE LYMPHOCYTE / ABSOLUTE MONOCYTE / ABSOLUTE SEGMENTED NEUTROPHIL / BASOPHIL / EOSINOPHIL / ERYTHROCYTE COUNT / HEMATOCRIT / HEMOGLOBIN / LEUKOCYTE COUNT / LYMPHOCYTE / MEAN CORPUSCULAR HEMOGLOBIN / MEAN CORPUSCULAR HEMOGLOBIN CONCENTRATION / MEAN CORPUSCULAR VOLUME / MONOCYTE / NEUTROPHIL / NUCLEATED RED BLOOD CELLS / PLATELET COUNT: tissue Blood
# [1] = 72 h, tissue Plasma, time 3 day
# [2] = 120 h, tissue Plasma, time 5 day
smiles,measurement,setting,value
CC(C)=CCC/C(C)=C/CO [GERANIOL],ABSOLUTE BASOPHIL,"72 h, time 3 day",0 CELLS/uL
same,ABSOLUTE EOSINOPHIL,"72 h, time 3 day",0 CELLS/uL
same,ABSOLUTE LYMPHOCYTE,"72 h, time 3 day",15609.33 CELLS/uL
same,ABSOLUTE MONOCYTE,"72 h, time 3 day",78.67 CELLS/uL
same,ABSOLUTE SEGMENTED NEUTROPHIL,"72 h, time 3 day",1378.67 CELLS/uL
same,BASOPHIL,"72 h, time 3 day",0%
same,EOSINOPHIL,"72 h, time 3 day",0%
same,ERYTHROCYTE COUNT,"72 h, time 3 day",5.7 x10E6/uL
same,HEMATOCRIT,"72 h, time 3 day",37.23%
same,HEMOGLOBIN,"72 h, time 3 day",14.37 G/DL
same,LEUKOCYTE COUNT,"72 h, time 3 day",17.07 x10E3/uL
same,LYMPHOCYTE,"72 h, time 3 day",92%
same,MEAN CORPUSCULAR HEMOGLOBIN,"72 h, time 3 day",25.2 pg
same,MEAN CORPUSCULAR HEMOGLOBIN CONCENTRATION,"72 h, time 3 day",38.57 G/DL
same,MEAN CORPUSCULAR VOLUME,"72 h, time 3 day",65.37 fL
same,MONOCYTE,"72 h, time 3 day",0.33%
same,NEUTROPHIL,"72 h, time 3 day",7.67%
same,NUCLEATED RED BLOOD CELLS,"72 h, time 3 day",0.33 /100WBC
same,PLATELET COUNT,"72 h, time 3 day",1276 x10E3/uL
same,ALANINE AMINOTRANSFERASE,[1],47.33 u/L
same,ALBUMIN,[1],4.4 G/DL
same,ALKALINE PHOSPHATASE,[1],442 u/L
same,ASPARTATE AMINOTRANSFERASE,[1],82 u/L
same,BLOOD UREA NITROGEN,[1],13 mg/dL
same,CARBON DIOXIDE,[1],29 mmol/L
same,CHLORIDE,[1],100.67 MEQ/L
same,CHOLESTEROL,[1],46.33 mg/dL
same,CREATINE PHOSPHOKINASE,[1],471.33 u/L
same,CREATININE,[1],0.25 mg/dL
same,GLUCOSE,[1],162 mg/dL
same,LACTATE DEHYDROGENASE,[1],193.67 u/L
same,LIPASE,[1],9 u/L
same,PHOSPHORUS,[1],14.7 mg/dL
same,POTASSIUM,[1],7.11 MEQ/L
same,SODIUM,[1],143.87 MEQ/L
same,TOTAL BILIRUBIN,[1],0.13 mg/dL
same,TOTAL PROTEIN,[1],5.93 G/DL
same,URIC ACID,[1],2.07 mg/dL
same,ABSOLUTE BASOPHIL,"120 h, time 5 day",0 CELLS/uL
same,ABSOLUTE EOSINOPHIL,"120 h, time 5 day",0 CELLS/uL
same,ABSOLUTE LYMPHOCYTE,"120 h, time 5 day",19247.33 CELLS/uL
same,ABSOLUTE MONOCYTE,"120 h, time 5 day",1179 CELLS/uL
same,ABSOLUTE SEGMENTED NEUTROPHIL,"120 h, time 5 day",2373.67 CELLS/uL
same,BASOPHIL,"120 h, time 5 day",0%
same,EOSINOPHIL,"120 h, time 5 day",0%
same,ERYTHROCYTE COUNT,"120 h, time 5 day",6.01 x10E6/uL
same,HEMATOCRIT,"120 h, time 5 day",36.67%
same,HEMOGLOBIN,"120 h, time 5 day",14.67 G/DL
same,LEUKOCYTE COUNT,"120 h, time 5 day",22.8 x10E3/uL
same,LYMPHOCYTE,"120 h, time 5 day",84.67%
same,MEAN CORPUSCULAR HEMOGLOBIN,"120 h, time 5 day",24.53 pg
same,MEAN CORPUSCULAR HEMOGLOBIN CONCENTRATION,"120 h, time 5 day",40.03 G/DL
same,MEAN CORPUSCULAR VOLUME,"120 h, time 5 day",61.2 fL
same,MONOCYTE,"120 h, time 5 day",5%
same,NEUTROPHIL,"120 h, time 5 day",10.33%
same,NUCLEATED RED BLOOD CELLS,"120 h, time 5 day",0 /100WBC
same,PLATELET COUNT,"120 h, time 5 day",1333 x10E3/uL
same,ALANINE AMINOTRANSFERASE,[2],63 u/L
same,ALBUMIN,[2],4.63 G/DL
same,ALKALINE PHOSPHATASE,[2],302.67 u/L
same,ASPARTATE AMINOTRANSFERASE,[2],95.67 u/L
same,BLOOD UREA NITROGEN,[2],18 mg/dL
same,CARBON DIOXIDE,[2],32 mmol/L
same,CHLORIDE,[2],102.33 MEQ/L
same,CHOLESTEROL,[2],85.67 mg/dL
same,CREATINE PHOSPHOKINASE,[2],441 u/L
same,CREATININE,[2],0.16 mg/dL
same,GLUCOSE,[2],143 mg/dL
same,LACTATE DEHYDROGENASE,[2],772 u/L
same,LIPASE,[2],10 u/L
same,PHOSPHORUS,[2],12.2 mg/dL
same,POTASSIUM,[2],6.32 MEQ/L
same,SODIUM,[2],142.2 MEQ/L
same,TOTAL BILIRUBIN,[2],0.1 mg/dL
same,URIC ACID,[2],2 mg/dL

# Reference: ChEMBL document CHEMBL3885881, “DrugMatrix”
